{"source": "paper PMC10120310", "about": "(Cell Insight, 2022)", "key": {"[1]": {"system": "oseltamivir-resistant strain (H1N1, H274Y)", "assay_type": "cell-based, H1N1 influenza virus (H274Y)"}, "[2]": {"system": "oseltamivir-resistant strain (H1N1, H274Y)", "assay_type": "cell-based, H1N1 influenza virus (H274Y)", "remark": "listed apart in the source"}}}
{"smiles": "CCOC(=O)C1=C[C@@H](OC(CC)CC)[C@H](NC(C)=O)[C@@H](N)C1", "note": "[OSP, oseltamivir phosphate]", "values": [{"measurement": "viral NP protein level of the resistant strain", "setting": "[1]", "result": "no antiviral activity"}, {"measurement": "viral NP mRNA level of the resistant strain", "setting": "[2]", "result": "no antiviral activity"}]}
